Results on two compounds are retold here after PMC11773474, “Roles for Prlhr/GPR10 and Npffr2/GPR74 in feeding responses to PrRP” (Molecular Metabolism, 2025).

One data set concerns GPR147. Particulars: cited from earlier work. The text has this: Thus, PrRP analogs like p52 might act via GPR147 to decrease food intake. It is not clear whether p52 and other PrRP analogs can suppress food intake via GRP10 and/or GPR74 in the absence of GPR147, but it would be interesting to assess this possibility, as well as potential roles for each of these rece ...
Data set [1] is described as follows: Pharmacokinetics: clearance of p52 from the blood of mice. The class given is in vivo, mouse. Particulars: LC-MS, n=6/group. How it is done:
Supplemental Figure 2 . Quality analysis, in v itro potency, and clearance from the blood of mice for p52. A Analytical RP-HPLC spectrum for p52 was recorded using an Agilent 1260 Infinity system. B Spectrographic data from the analysis of purified p52 by single quadrupolar LC/MS using a Waters Mass Lynx 3100 platform. C Peptide in vitro potencies determined in CHO cells transfected with mouse GPR10 or GPR74 receptor.
For GPR74 potency was determined for peptide mediated inhibition of forskolin stimulated cAMP accumulation, as described (48). For GPR10 potency was determined in calcium mobilization assay in cells incubated with FLuo- 4AM calcium assay kit and measured on a FLIPR TETRA (Molecular Devices, Sunnyvale, CA). Shown are log(1/EC50) (1/nM) values for cAMP generation via GRP10 and GPR74 for p52, PrRP-31, and NPFF. ND- not detected. D Mice were injected with the indicated doses of p52.
Blood was drawn at the indicated times after dosing and p52 was quantified by LC-MS.
Shown are mean +/- STD; individual measurements are shown, as well; n=6/group. ND - […]
(1 picture or pasted object on this page, not shown here)

Take prolactin releasing peptide [PrRP]: the “affinity for GPR147” value with GPR147 is “measurable (albeit low) affinity”.

As for `CCCCCCCCCCCCCCCC(=O)N[C@@H](CO)C(=O)N[C@@H](CCCNC(=N)N)C(=O)N[C@H](C(=O)N[C@@H](Cc1c[nH]cn1)C(=O)N[C@@H](CCCNC(=N)N)C(=O)N[C@@H](Cc1c[nH]cn1)C(=O)N[C@@H](CO)C(=O)N[C@@H](CCCC)C(=O)N[C@@H](CCC(=O)O)C(=O)N[C@H](C(=O)N[C@@H](CCCNC(=N)N)C(=O)N[C@H](C(=O)N1CCC[C@H]1C(=O)N[C@@H](CC(=O)O)C(=O)N[C@H](C(=O)N[C@@H](CC(N)=O)C(=O)N1CCC[C@H]1C(=O)N[C@@H](C)C(=O)N[C@@H](Cc1c[nH]c2ccccc12)C(=O)N[C@@H](Cc1ccc(O)cc1)C(=O)N[C@@H](C)C(=O)N[C@@H](CO)C(=O)N[C@@H](CCCNC(=N)N)C(=O)NCC(=O)N[C@H](C(=O)N[C@@H](CCCNC(=N)N)C(=O)N1CCC[C@H]1C(=O)N[C@H](C(=O)NCC(=O)N[C@@H](CCCNC(=N)N)C(=O)N[C@@H](Cc1ccc([N+](=O)[O-])cc1)C(N)=O)C(C)C)[C@@H](C)CC)[C@@H](C)CC)[C@@H](C)O)[C@@H](C)CC)[C@@H](C)O` [p52], the “p52 detectable in the circulation for at least 4 h” value in data set [1] (dose 1.5 mg/kg) is given as “not”. In addition, the “time p52 remained detectable in the circulation” value in data set [1] (dose 5 mg/kg) was “at least 4 h”.
